“And” between values parts separate entries of the source, which are not always exact repeats. Equal values may be shown once.
What was measured:
CD14/16++ cells = assay: Yield of CD14/16++ cells in culture, flow cytometry; format: cell-based, human; settings: 10 μM MGBG; for % Reduction 14/16, Average: 5th day
CD14+ cells = assay: Yield of CD14+ cells in culture, flow cytometry; format: cell-based, human; settings: 10 μM MGBG; for % Reduction 14, Average: 5th day
IL24 = assay: Microarray analysis of mononuclear cells, IL24; format: cell-based, human; settings: for IL24 signal +, Average: 10 μM MGBG
Method: Blood samples were obtained from HIV infected patients (N=9) with positive viral load and reduced CD4 counts, and non-HIV infected, healthy controls (N=6). Blood was collected into heparin anticoagulant tubes and mononuclear cells were isolated by Percoll gradient centrifugation. The cells from each sample were split into 2: one-half receives MGBG at concentration of 10 μM and the other half received no treatment. All samples were then cultured overnight in RPMI media with 10% fetal bovine serum at 37° C. under non-adherent conditions. The next day cells were collected by centrifugation, washed one time with PBS, and lysed by resuspension in TRIZOL, and total RNA was prepared according to manufacturer's instructions (Invitrogen, Carlsbad, Calif.). […] The RNA was then amplified for microarray analysis using a 2 cycle amplification protocol according to the manufacturer's instructions (Affymetrix, Santa Clara, Calif.). The amplified RNAs were then hybridized to Human Genome U133 plus 2.0 microarrays (Affymetrix) and expression data was obtained using an Affymetrix scanner and GCOS protocols. Microarray data was analyzed with GeneSpring Microarray Suite. Results were normalized using a set of 100 probe sets determined by the manufacturer to have relatively invariant expression across most cell types.

SPP1 = assay: Quantitative RT-PCR, unsorted mononuclear cells, SPP1; format: cell-based, human
Method: (§1) To evaluate the effect of MGBG on gene expression, blood samples were obtained from patients (N=18, 10 HIV-infected and 8 Healthy Controls). Mononuclear cells were isolated via Percoll gradient centrifugation. The cells were split into two tubes, one treated with 10 μM of MGBG and the other non-treated. The cells were then cultured overnight in RPMI media plus 10% fetal bovine serum at 37 C under non-adherent conditions, collected, lysed using Trizol solution, and total RNA prepared according to manufacturer's instructions (Invitrogen, Carlsbad, Calif.).
(§2) Approximately 200 ng of total RNA prepared from each sample was converted to cDNA using the First Strand cDNA Synthesis Kit for RT-PCR [AMV] kit (Roche Applied Diagnostics, Indianapolis, Ind.) according to manufacturer's instructions. Around 5 ng of cDNA sample was then used for PCR performed on a LightCycler (Roche Applied Diagnostics, Indianapolis, Ind.) using the LightCycler FastStart DNA Master SYBR Green I kit. PCR conditions are as follows: 1 cycle of denaturation at 95° C. for 10 minutes, followed by 45 cycles of 95° C. for 10 seconds, 68° C. for 10 seconds, and 72° C. for 16 seconds.
(§3) The sequences of gene-specific primers evaluated are listed below. All samples were also amplified with the human β-actin LightCycler-Primer set (Roche Diagnostics).

SGNE3 = assay: Quantitative RT-PCR, unsorted mononuclear cells, SGNE3; format: cell-based, human
Method: as §1, §2, §3

ADA = assay: Quantitative RT-PCR, unsorted mononuclear cells, ADA; format: cell-based, human
Method: as §1, §2, §3

IL6 = assay: Quantitative RT-PCR, unsorted mononuclear cells, IL6; format: cell-based, human
Method: as §1, §2, §3

FCGR1a = assay: Quantitative RT-PCR, unsorted mononuclear cells, FCGR1A; format: cell-based, human
Method: as §1, §2, §3

osteopontin = assay: QRT-PCR in CD14/CD16-separated cell fractions, osteopontin RNA; format: cell-based, human; settings: for osteopontin RNA, median change relative to no MGBG: 10 μM MGBG
Method: The changes induced by MGBG in different blood cell types were determined for osteopontin and adenosine deaminase and 7 other genes. For this experiment, blood samples were obtained from 6 healthy controls (3 men/3 women from 20 to 55 years of age) and mononuclear cells were isolated via Percoll gradient centrifugation. The cells were then incubated for 3 hours in RPMI media plus 10% fetal bovine serum at 37 C. At that point MGBG was added to 10 μM to half of each sample and then the cells were incubated at 37 C for 20 more hours. The cells were then bound to magnetic beads coated with antibodies to human CD16. Bound cells (CD16 expressing) were separated from unbound cells using an AutoMACs according to manufacturer's instructions (Miltenyi, Auburn Calif.). Then CD16+ cells are released from the magnetic beads and both the CD16+ and CD16− cells are combined with magnetic beads coated with antibodies to human CD14. Antibody bound and unbound cells were then separated using the AutoMACs machine. […] Cells that neither express CD16 nor CD14 (the −/− Cells). This is mostly T lymphocytes; 2. Cells that only express CD16. This includes contaminating granulocytes not removed by Percoll centrifugation and CD16+ monocytes with very low CD14 expression; 3. Cells that express both CD16 and CD14. This includes monocytes that are expressing CD16+ and macrophages (which express high levels of both); and 4. Cells that only express CD14. This would include most normal human monocytes. After separation, cells of each fraction are washed with PBS and the number of viable cells determined by trypan blue exclusion. RNA is then prepared from each cell group using TRIZOL, according to manufacturer's instructions.

PBMCs = assay: Cell viability of PBMC cultures when CCS were collected; format: cell-based, human; settings: each MGBG concentration (0.1-100 μM), when the CCS were collected
OPN RNA = assay: OPN production inhibition assay in un-stimulated PBMC cultures, OPN RNA; format: cell-based; settings: 10 μM, harvested 1, 3 and 6 days
Method: 10 μM of each drug was added to un-stimulated PBMC cultures at time=0 and cells were harvested 1,3, and 6 days later for quantitative OPN RNA and protein production analysis.

[1] = 5th day of culture, individual donor samples (HIV or healthy)
[2] = 10 μM MGBG overnight, untreated vs treated, negative = fold reduction, individual samples
[3] = 10 μM MGBG, all unsorted samples
[4] = 10 μM MGBG overnight, individual samples

## CC(/C=N/NC(=N)N)=N\NC(=N)N [MGBG, 1,1′ [methylethanediylidene]dinitrilodiguanidine]
CD14/16++ cells; [1]
  % Reduction 14/16: 26% and 53% and 91% and 54% and 61% and <0% and 71%
CD14/16++ cells; average of HIV samples
  % Reduction 14/16, Average: 60.3%
CD14/16++ cells; average of healthy samples
  % Reduction 14/16, Average: 57.5%
CD14+ cells; [1]
  % Reduction 14: 26% (2×) and 21% and 53% and 76% and 31% and <0% and 58%
CD14+ cells; average of HIV samples
  % Reduction 14, Average: 46.8%
CD14+ cells; average of healthy samples
  % Reduction 14, Average: 28.5%
IL24; average of HIV samples
  IL24 signal +, Average: 560
IL24; average of control samples (C6-, M6-177)
  IL24 signal +, Average: 598
IL24; 10 μM, individual donor samples
  IL24 fold change, MGBG/ON ratio (up-regulation): 5.4 fold and 1.2 fold (2×) and 3.3 fold and 0.3 fold and 0.5 fold and 0.2 fold and 5.5 fold and 2.6 fold and 4.5 fold (2×) and 0.03 fold and 192.1 fold and 0.6 fold and 26.0 fold
IL24; HIV infected samples but not controls
  IL24 regulation after MGBG exposure: upregulated
IL24; presence of 10 μM MGBG overnight, individual donor samples
  IL24 signal +: 111 and 85 and 1940 and 178 and 375 and 578 and 206 and 1549 and 925 and 163 and 166 and 350 and 1364 and 59 and 577
SPP1; [2]
  Fold change SPP1 by QRT-PCR: −20.11 fold and −83.87 fold and −6.59 fold and −1.30 fold and −8.82 fold and −95.67 fold and −7.89 fold and −1.95 fold and −46.21 fold and −5.90 fold and −2.11 fold and −6.15 fold and −1.28 fold and −467.88 fold and −18.90 fold (2×) and −300.25 fold and −2.14 fold
SPP1; [3]
  Fold change SPP1, AVERAGE: −60.9 fold
  Fold change SPP1, MAX: −1.3 fold
  Fold change SPP1, MIN: −467.9 fold
SPP1; certain unsorted samples
  SPP1 fold changes between the untreated and the treated: up to 300 fold
SPP1; share of samples, 10 μM MGBG
  SPP1 % >2 fold Changed: 83%
SGNE3; [2]
  Fold change SGNE3 by QRT-PCR: 1.58 fold and −3.25 fold and −1.30 fold and −2.39 fold and −2.43 fold and −1.48 fold and 1.61 fold and −3.61 fold and −1.66 fold and −1.13 fold and 1.79 fold and −7.11 fold and −2.50 fold and −4.41 fold
SGNE3; [3]
  Fold change SGNE3, AVERAGE: −1.9 fold
  Fold change SGNE3, MAX: 1.8 fold
  Fold change SGNE3, MIN: −7.1 fold
SGNE3; level of inhibition in most samples is low
  SGNE3 regulation by MGBG: mostly down-regulated
SGNE3; share of samples, 10 μM MGBG
  SGNE3 % >2 fold Changed: 50%
ADA; [2]
  Fold change ADA by QRT-PCR: 16.80 fold and 4.69 fold and 18.77 fold and 2.33 fold and 13.00 fold and 3.34 fold and 5.90 fold and 10.06 fold and 7.52 fold and 4.23 fold and 7.21 fold and 1.38 fold and −0.73 fold and 6.68 fold and 3.01 fold and 3.76 fold and 1.16 fold and 7.16 fold
ADA; [3]
  Fold change ADA, AVERAGE: 6.5 fold
  Fold change ADA, MAX: 18.8 fold
  Fold change ADA, MIN: −0.7 fold
ADA; share of samples, 10 μM MGBG
  ADA % >2 fold Changed: 83%
ADA; upregulated in all but one sample
  ADA regulation by MGBG: strongly induced
IL6; [4]
  Fold change IL6 by QRT-PCR: −5.31 fold and 3.71 fold and 1.04 fold and 1.01 fold and −2.93 fold and −4.17 fold and 2.20 fold and 2.83 fold and −2.71 fold and −4.06 fold and 1.74 fold (2×) and 1.30 fold and 1.46 fold and −6.15 fold and −1.09 fold and −5.46 fold and 14.72 fold
IL6; 10 μM MGBG, all samples
  IL6 AVERAGE: 1.91 fold
  IL6 MAX: 14.72 fold
  IL6 MIN: −6.15 fold
FCGR1a; [4]
  Fold change FCGR1A by QRT-PCR: −1.61 fold and −1.84 fold and −1.01 fold and −1.72 fold and −3.73 fold and 1.72 fold and 5.94 fold and 2.39 fold and −1.97 fold and 19.03 fold and 1.16 fold and −0.41 fold and −0.43 fold and −10.78 fold and −17.15 fold and −2.22 fold and −3.86 fold and 1.05 fold
FCGR1a; 10 μM MGBG, all samples
  FCGR1A AVERAGE: 2.25 fold
  FCGR1A MAX: 19.03 fold
  FCGR1A MIN: −17.15 fold
osteopontin; CD14+ monocyte fraction
  osteopontin RNA, median change relative to no MGBG: 0.21
osteopontin; CD14+ monocyte fraction, 10 μM MGBG 20 h, healthy controls, p=0.03
  osteopontin RNA median reduction: 4.8 fold
osteopontin; CD14/16++ cells, not significant
  osteopontin RNA, median change relative to no MGBG: 0.61
osteopontin; CD16+ cells, not significant
  osteopontin RNA, median change relative to no MGBG: 1.12
osteopontin; double negative cells, not significant
  osteopontin RNA, median change relative to no MGBG: 0.70
PBMCs
  cell viability: at least 75%
OPN RNA
  OPN RNA expression: inhibited in a time dependant manner

— patent US9867794B2, “Regulation of osteopontin” (Pathologica LLC, priority 2007, dated 2018)
